{
  "source": "patent US4080450A",
  "about": "“2-Carbamoyl-1,2,4,5-tetrahydro-3H-2-benzazepin-3-ones” (U C B, Societe Anonyme, priority 1976, dated 1978)",
  "key": {"[1]": {"experiment": "spinal fixation time test (elementary model of memory)", "type": "in vivo, rat", "conditions": "i.p.", "source_text": "Action on the mnemic processes is shown, in particular, by a reduction in the time for spinal fixation, a test which has been described in the literature (C. GIURGEA and F. MOURAVIEFF-LESUISSE, Arch.Int.Pharmacodyn. 191,(2),(1971),279) as an elementary model of memory and which is endowed with a pharmacological reactivity in good correlation with the clinical physiopathology. In the rat, after unilateral lesion of the cerebellum, there is a postural asymmetry of the hind paws. This asymmetry may persist, even after spinal section, if the animal has been in this situation for a sufficiently long period of time. This time, which is called the spinal fixation time, is 45 minutes under the experimental conditions. On the other hand, if spinal section is performed before the expiry of this period, for example 35 minutes after the onset of the asymmetry, the latter disappears. […] Conversely, any compound which allows the rats to retain the asymmetry (thus achieving spinal fixation) when the spinal section is carried out after 35 minutes, is regarded as being active.\nUnder these conditions, administration of a compound according to the present invention, for example 2-methyl-carbamoyl-1,2,4,5-tetrahydro-3H-2-benzazepin-3-one (compound A) or 4,5-dimethyl-2-methylcarbamoyl-1,2,4,5-tetrahydro-3H-2-benzazepin-3-one(compound B), produces the following effects: […]"}, "[2]": {"experiment": "active avoidance test (memory retention)", "type": "in vivo, rat", "conditions": "for minimal effective dose: Rattus norvegicus, sc, subcutaneous, minimum dose which lowers the stimulus to below 110 g", "source_text": "The principle of the active avoidance test, which has been developed in our laboratories and used for this purpose, may be described as follows: the withdrawal reaction of a rat's paw subjected to increasing and measured pressure is observed. The pressure at which the withdrawal reaction is produced is called the reaction threshold. The latter is expressed in grams and thus corresponds to the minimum pressure which, when applied to the paw of the animals causes withdrawal. It is read off directly from a scale on the apparatus used. […] A minimum of 20 rats are used for each test (10 treated rats and 10 control rats), the active dose being defined as the minimum dose which lowers the stimulus to below 110 g.\n*Stimulus (expressed in g.) initiating the avoidance reaction 24 hours\nafter the first stimulation."}, "[3]": {"experiment": "Brevatonal test (protection against hypoxic type aggressions)", "type": "in vivo, mice", "conditions": "i.p.", "description": "At the doses used, this curarizing agent brings about a respiratory depression which, in turn, brings about a hypoxi-hypercapnic syndrome. A compound capable of protecting the brain during this short period of hypoxia ensures survival. The compounds are administered to groups of 10 mice one hour before the injection of the curarizing agent; concurrently herewith, a control group of 10 mice is given a physiological salt solution prior to the curarizing agent. For each compound, the proportion of mice which survive is compared to the proportion of control mice which survive by the \"Fisher exact probability test\". This test, called the Brevatonal test, has also been developed in our laboratories.\nIntraperitoneal administration (i.p.) of compounds according to the present invention, namely, 2-methylcarbamoyl-1,2,4,5-tetrahydro-3H-2-benzazepin-3-one (compound A), 4,5-dimethyl-2-methylcarbamoyl-1,2,4,5-tetrahydro-3H-2-benzazepin-3-one (compound B) and 4-n-butyl-2-methylcarbamoyl-1,2,4,5-tetrahydro-3H-2-benzazepin-3-one (compound I) under these conditions produced the effects summarized in the following Table II."}, "[4]": {"experiment": "toxicity, lethal dose (LD50)", "conditions": "in vivo, ip; rat, intraperitoneal", "description": "The new compounds according to the present invention appear to have a remarkably low toxicity. For example, for compound A, the lethal dose (LD50) in the rat, when administered intraperitoneally, is more than 1000 mg./kg."}, "[5]": {"conditions": "30 mg./kg. (0.2 mmole/kg.), Giurgea and Mouravieff-Lesuisse, cited from earlier work"}},
  "note": "Where “and” joins values, the source holds several entries; their conditions need not be identical. Equal values may be shown once. Read-outs that look alike come from different tables or passages of the source.",
  "data": [
    {"smiles": "CNC(=O)N1Cc2ccccc2[C@@H](C)[C@@H](C)C1=O", "note": "(relative stereo) [B, 4,5-dimethyl-2-methylcarbamoyl-1,2,4,5-tetrahydro-3H-2-benzazepin-3-one]", "values": [
      {"measurement": "spinal fixation after 35 minutes (animals)", "setting": "[1]; 24 mg./kg. (0.1 mmole/kg.)", "value": "three animals out of seven"},
      {"measurement": "minimal effective dose", "setting": "[2]", "value": "1.23 mg/kg and 5 µmol/kg"},
      {"measurement": "Stimulus initiating the avoidance reaction 24 hours after the first stimulation", "setting": "[2]; subcut. dose 0.49 mg./kg., control (dose 0) 152", "value": 124, "unit": "g"},
      {"measurement": "Stimulus initiating the avoidance reaction 24 hours after the first stimulation", "setting": "[2]; subcut. dose 1.23 mg./kg., control (dose 0) 152", "value": 107, "unit": "g"},
      {"measurement": "Proportion of survivors, treated animals", "setting": "[3]; 25 mg./kg. (0.1 mmole/kg.), control 1/10", "value": "7/10"}
    ]},
    {"smiles": "CNC(=O)N1Cc2ccccc2CCC1=O", "note": "[A, 2-methylcarbamoyl-1,2,4,5-tetrahydro-3H-2-benzazepin-3-one]", "values": [
      {"measurement": "spinal fixation after 35 minutes (animals)", "setting": "[1]; 70 mg./kg. (0.3 mmole/kg.)", "value": "three animals out of five"},
      {"measurement": "minimal effective dose", "setting": "[2]", "value": "2.18 mg/kg and 10 µmol/kg"},
      {"measurement": "Stimulus initiating the avoidance reaction 24 hours after the first stimulation", "setting": "[2]; subcut. dose 1.09 mg./kg., control (dose 0) 159", "value": 120, "unit": "g"},
      {"measurement": "Stimulus initiating the avoidance reaction 24 hours after the first stimulation", "setting": "[2]; subcut. dose 2.18 mg./kg., control (dose 0) 159", "value": 89, "unit": "g"},
      {"measurement": "Proportion of survivors, treated animals", "setting": "[3]; 70 mg./kg. (0.32 mmole/kg.), control 1/10", "value": "6/10"},
      {"measurement": "LD50", "setting": "[4]", "value": "> 1000", "unit": "mg/kg"}
    ]},
    {"smiles": "CC1CC(=O)N(C(=O)N2CCOCC2)Cc2ccccc21", "note": "(stereo not shown) [C, 5-methyl-2-morpholinocarbonyl-1,2,4,5-tetrahydro-3H-2-benzazepin-3-one]", "values": [
      {"measurement": "minimal effective dose", "setting": "[2]", "value": "2.88 mg/kg and 10 µmol/kg"},
      {"measurement": "Stimulus initiating the avoidance reaction 24 hours after the first stimulation", "setting": "[2]; subcut. dose 0.28 mg./kg., control (dose 0) 173", "value": 116, "unit": "g"},
      {"measurement": "Stimulus initiating the avoidance reaction 24 hours after the first stimulation", "setting": "[2]; subcut. dose 2.88 mg./kg., control (dose 0) 173", "value": 98, "unit": "g"}
    ]},
    {"smiles": "CNC(=O)N1Cc2ccc(Cl)cc2CCC1=O", "note": "[D, 7-chloro-2-methylcarbamoyl-1,2,4,5-tetrahydro-3H-2-benzazepin-3-one]", "values": [
      {"measurement": "minimal effective dose", "setting": "[2]", "value": "2.52 mg/kg and 10 µmol/kg"},
      {"measurement": "Stimulus initiating the avoidance reaction 24 hours after the first stimulation", "setting": "[2]; subcut. dose 1.26 mg./kg., control (dose 0) 157", "value": 122, "unit": "g"},
      {"measurement": "Stimulus initiating the avoidance reaction 24 hours after the first stimulation", "setting": "[2]; subcut. dose 2.52 mg./kg., control (dose 0) 157", "value": 100, "unit": "g"}
    ]},
    {"smiles": "CNC(=O)N1Cc2ccc(Cl)cc2CC(C)C1=O", "note": "(stereo not shown) [E, 7-chloro-4-methyl-2-methylcarbamoyl-1,2,4,5-tetrahydro-3H-2-benzazepin-3-one]", "values": [
      {"measurement": "minimal effective dose", "setting": "[2]", "value": "0.53 mg/kg and 2 µmol/kg"},
      {"measurement": "Stimulus initiating the avoidance reaction 24 hours after the first stimulation", "setting": "[2]; subcut. dose 0.26 mg./kg., control (dose 0) 163", "value": 115, "unit": "g"},
      {"measurement": "Stimulus initiating the avoidance reaction 24 hours after the first stimulation", "setting": "[2]; subcut. dose 0.53 mg./kg., control (dose 0) 163", "value": 83, "unit": "g"}
    ]},
    {"smiles": "CCCCNC(=O)N1Cc2ccccc2CCC1=O", "note": "[F, 2-n-butylcarbamoyl-1,2,4,5-tetrahydro-3H-2-benzazepin-3-one]", "values": [
      {"measurement": "minimal effective dose", "setting": "[2]", "value": "< 0.2 mg/kg and < 0.8 µmol/kg"},
      {"measurement": "Stimulus initiating the avoidance reaction 24 hours after the first stimulation", "setting": "[2]; subcut. dose 0.2 mg./kg., control (dose 0) 159", "value": 92, "unit": "g"}
    ]},
    {"smiles": "CCCCNC(=O)N1C(=O)CCc2cc(OC)ccc2C1c1ccccc1", "note": "(stereo not shown) [G, 2-n-butylcarbamoyl-7-methoxy-1-phenyl-1,2,4,5-tetrahydro-3H-2-benzazepin-3-one]", "values": [
      {"measurement": "Stimulus initiating the avoidance reaction 24 hours after the first stimulation", "setting": "[2]; subcut. dose 0.72 mg./kg.", "value": 106, "unit": "g"},
      {"measurement": "Stimulus initiating the avoidance reaction 24 hours after the first stimulation", "setting": "[2]; subcut. dose 3.66 mg./kg.", "value": 95, "unit": "g"}
    ]},
    {"smiles": "CN(C)C(=O)N1Cc2ccccc2CCC1=O", "note": "[H, 2-dimethylcarbamoyl-1,2,4,5-tetrahydro-3H-2-benzazepin-3-one]", "values": [
      {"measurement": "minimal effective dose", "setting": "[2]", "value": "2.32 mg/kg and 10 µmol/kg"},
      {"measurement": "Stimulus initiating the avoidance reaction 24 hours after the first stimulation", "setting": "[2]; subcut. dose 2.32 mg./kg.", "value": 90, "unit": "g"}
    ]},
    {"smiles": "CCCCC1Cc2ccccc2CN(C(=O)NC)C1=O", "note": "(stereo not shown) [I, 4-n-butyl-2-methylcarbamoyl-1,2,4,5-tetrahydro-3H-2-benzazepin-3-one]", "values": [
      {"measurement": "Proportion of survivors, treated animals", "setting": "[3]; 27 mg./kg. (0.1 mmole/kg.), control 1/10", "value": "7/10"},
      {"measurement": "Proportion of survivors, treated animals", "setting": "[3]; 87 mg./kg. (0.32 mmole/kg.), control 1/10", "value": "8/10"}
    ]},
    {"smiles": "NC(=O)CN1CCCC1=O", "note": "[piracetam, reference compound]", "values": [
      {"measurement": "minimal effective dose", "setting": "[2]", "value": "3.5 mg/kg and 25 µmol/kg"},
      {"measurement": "Stimulus initiating the avoidance reaction 24 hours after the first stimulation", "setting": "[2]; subcut. dose 1.5 mg./kg., control (dose 0) 153", "value": 120, "unit": "g"},
      {"measurement": "Stimulus initiating the avoidance reaction 24 hours after the first stimulation", "setting": "[2]; subcut. dose 3.5 mg./kg., control (dose 0) 153", "value": 90, "unit": "g"},
      {"measurement": "retention of the earlier test", "setting": "[2]; tested 24 hours later, versus control animals", "value": "significant degree of retention"},
      {"measurement": "Proportion of survivors, treated animals", "setting": "[3]; 45 mg./kg. (0.32 mmole/kg.), control 0/10", "value": "1/10"},
      {"measurement": "Proportion of survivors, treated animals", "setting": "[3]; 142 mg./kg. (1 mmole/kg.), control 2/10", "value": "4/10"},
      {"measurement": "Proportion of survivors, treated animals", "setting": "[3]; 454 mg./kg. (3.2 mmole/kg.), control 1/10", "value": "8/10"},
      {"measurement": "spinal fixation after 35 minutes (animals)", "setting": "[5]; same conditions", "value": "four animals out of nine"},
      {"measurement": "activity in spinal fixation test", "setting": "[5]", "value": "active"}
    ]}
  ]
}
